{"source": "patent US20240360122A1", "about": "“POLYMORPHIC FORMS AND SALTS OF A GLP-1R AGONIST” (Terns (Suzhou) Biotechnology Co., Ltd., priority 2023, published 2024)", "format_in_all_cases": "physicochemical", "key": {"[1]": {"experiment": "Chemical stability studies of Compound 1 meglumine salt at high temperatures", "details": "solution and solid states"}, "[2]": {"experiment": "Slurry competition among Freeform Type A/C/M", "details": "slurry competition in EtOAc and ACN, RT and 50° C.", "protocol": "The detailed procedures are as following:\n1. […] Add 1 mL corresponding solvent.\n2. Magnetically stirred at RT or 50° C. for 4 hours. Filter through 0.45 μm PTFE filter to obtain clear solution.\n4. Magnetically stirred at RT or 50° C. for 4 days. Tested XRPD of the wet cake."}, "[3]": {"experiment": "Solid state stability at 25° C./60% RH and 40° C./75% RH for 1 week", "protocol": "Each sample was added into a glass vial, sealed by parafilm with several holes, and kept under tested conditions. After one week, samples were taken for XRPD and HPLC purity test."}, "[4]": {"experiment": "pH solubility in pH 1.0-8.0 buffers at RT", "details": "thermodynamic from solid; for solubility at 24 h: LOQ = 0.0001 mg/mL; for solubility: pH buffers, 2 and 24 hours", "protocol": "The procedures were listed below:\n1. […] Add 2 ml, of the corresponding medium.\n2. Mixed well and stirred at RT (1000 rpm). Check the pH and adjust it back to the target pH after dosing.\n3. Sampled after 2 hours and 24 hours. The supernatant was isolated by centrifugation (12000 rpm, 5 min) and filtration (0.22 μm, PTFE) for pH and HPLC test."}, "[5]": {"experiment": "Hygroscopicity by DVS at 25° C.", "protocol": "DVS was measured via a SMS (Surface Measurement Systems) DVS Intrinsic. The relative humidity at 25° C. were calibrated against deliquescence point of LiCl, Mg(NO3)2 and KCl."}, "[6]": {"experiment": "Kinetic solubility in water and bio-relevant media (SGF, FaSSIF, FeSSIF) at 37° C.", "details": "for S: Solubility: calculated by freeform; for FC: Form change: residual solids by XRPD", "protocol": "Add 4 mL of medium (H2O, SGF, FaSSIF and FeSSIF). • Rolled at 37° C. (˜25 rpm). Sampling at 1, 2, 4 and 24 hrs. • At each time-point, sampled 0.8 mL of solution or suspension into a centrifuge tube prior to centrifugation (12000 rpm, 37° C., 5 min) and filtration through 0.45 μm PTFE membrane. • Tested pH and concentration for the filtrate. Analyze residual solids by XRPD.\n0.1 g of NaCl and 0.05 g of Triton X-100 were weighed into a 50-mL volumetric flask. Purified water was added to dissolve the solid. 67.5 μL HCl (38%, 12M) was added after the solid was dissolved completely. pH was then adjusted to 1.8 using HCl (1 M) or NaOH (1 M). Purified water was added to the volume.\n(§1) 0.17 g of anhydrous NaH2PO4, 0.021 g of NaOH and 0.31 g of NaCl were weighed into a 50-mL volumetric flask. ˜48 mL purified water was added to dissolve the solid. pH was adjusted to 6.5 using 1M HCl or 1M NaOH. Purified water was then added to the volume. 0.11 g of SIF powder was added into the volumetric flask.\nas §1, with “0.41 mL” for “0.17 g”, “acetic acid, 0.20” for “anhydrous NaH2PO4, 0.021”, “0.59” for “0.31”, “5.0” for “6.5”, “0.56” for “0.11”"}}, "note": "Entries after “also recorded” stand apart in the source; their conditions may differ. Where a name gives a salt, the structure may show the parent alone.", "data": [{"smiles": "N#Cc1ccc(COc2cccc(C3CCN(Cc4nc5ccc(C(=O)O)cc5n4Cc4cncs4)CC3)n2)c(F)c1", "note": "[Compound 1 meglumine salt]", "values": [{"measurement": "chemical stability", "setting": "[1]", "result": "generally stable"}]}, {"smiles": "N#Cc1ccc(COc2cccc(C3CCN(Cc4nc5ccc(C(=O)O)cc5n4Cc4cncs4)CC3)n2)c(F)c1", "note": "[Freeform Type C]", "values": [{"measurement": "thermodynamic stability relationship among freeform anhydrates", "setting": "[2]", "result": "thermodynamically more stable anhydrate; also recorded: thermodynamically more stable form"}, {"measurement": "Form change", "setting": "[3]; 25° C./60% RH/Open/1 week", "result": "No"}, {"measurement": "Purity", "setting": "[3]; 25° C./60% RH/Open/1 week", "result": 96.58, "unit": "Area %"}, {"measurement": "solid-state stability: form change and purity decrease", "setting": "[3]; 25° C./60% RH/open and 40° C./75% RH/open, 1 week", "result": "no form change or significant purity decrease"}, {"measurement": "Form change", "setting": "[3]; 40° C./75% RH/Open/1 week", "result": "No"}, {"measurement": "Purity", "setting": "[3]; 40° C./75% RH/Open/1 week", "result": 96.69, "unit": "Area %"}, {"measurement": "Purity", "setting": "[3]; Initial", "result": 96.59, "unit": "Area %"}, {"measurement": "solubility at 24 h", "setting": "[4]; pH 1.0 buffer, pH 1, aqueous buffer", "result": 130, "unit": "µg/mL"}, {"measurement": "solubility at 24 h", "setting": "[4]; pH 2.0 buffer, pH 2, aqueous buffer", "result": 17, "unit": "µg/mL"}, {"measurement": "solubility", "setting": "[4]; pH 1, aqueous buffer, pH 1.0 buffer", "result": "≥ 130", "unit": "µg/mL"}, {"measurement": "solubility", "setting": "[4]; pH 2, aqueous buffer, pH 2.0˜8.0 buffers", "result": "≤ 34", "unit": "µg/mL"}, {"measurement": "water uptake (DVS)", "setting": "[5]; 25° C./80% RH", "result": 0.12, "unit": "%"}, {"measurement": "hygroscopicity", "setting": "[5]; DVS, 25° C.", "result": "non-hygroscopic"}, {"measurement": "Water uptake at 25° C./80% RH", "setting": "[5]; DVS, 25° C./80% RH", "result": 0.12, "unit": "wt %"}, {"measurement": "For change after DVS", "setting": "[5]; XRPD after DVS test", "result": "No"}, {"measurement": "form change after DVS test (XRPD)", "setting": "[5]; after DVS test", "result": "no form change"}, {"measurement": "S: Solubility", "setting": "[6]; FaSSIF, 37° C., 1 hr", "result": 2, "unit": "µg/mL"}, {"measurement": "FC: Form change", "setting": "[6]; FaSSIF, 37° C., 1 hr", "result": "No"}, {"measurement": "S: Solubility", "setting": "[6]; FaSSIF, 37° C., 2 hrs", "result": 7, "unit": "µg/mL"}, {"measurement": "FC: Form change", "setting": "[6]; FaSSIF, 37° C., 2 hrs", "result": "No"}, {"measurement": "S: Solubility", "setting": "[6]; FaSSIF, 37° C., 4 hrs", "result": 5, "unit": "µg/mL"}, {"measurement": "FC: Form change", "setting": "[6]; FaSSIF, 37° C., 4 hrs", "result": "No"}, {"measurement": "S: Solubility", "setting": "[6]; FaSSIF, 37° C., 24 hrs", "result": 3, "unit": "µg/mL"}, {"measurement": "FC: Form change", "setting": "[6]; FaSSIF, 37° C., 24 hrs", "result": "No"}, {"measurement": "FC: Form change", "setting": "[6]; FeSSIF, 37° C., 1 hr", "result": "No"}, {"measurement": "FC: Form change", "setting": "[6]; FeSSIF, 37° C., 2 hrs", "result": "No"}, {"measurement": "FC: Form change", "setting": "[6]; FeSSIF, 37° C., 4 hrs", "result": "No"}, {"measurement": "S: Solubility", "setting": "[6]; FeSSIF, 37° C., 24 hrs", "result": 8, "unit": "µg/mL"}, {"measurement": "FC: Form change", "setting": "[6]; FeSSIF, 37° C., 24 hrs", "result": "No"}, {"measurement": "S: Solubility", "setting": "[6]; H2O, 37° C., 1 hr", "result": 20, "unit": "µg/mL"}, {"measurement": "FC: Form change", "setting": "[6]; H2O, 37° C., 1 hr", "result": "No"}, {"measurement": "S: Solubility", "setting": "[6]; H2O, 37° C., 2 hrs", "result": 27, "unit": "µg/mL"}, {"measurement": "FC: Form change", "setting": "[6]; H2O, 37° C., 2 hrs", "result": "No"}, {"measurement": "S: Solubility", "setting": "[6]; H2O, 37° C., 4 hrs", "result": 20, "unit": "µg/mL"}, {"measurement": "FC: Form change", "setting": "[6]; H2O, 37° C., 4 hrs", "result": "No"}, {"measurement": "S: Solubility", "setting": "[6]; H2O, 37° C., 24 hrs", "result": 8, "unit": "µg/mL"}, {"measurement": "FC: Form change", "setting": "[6]; H2O, 37° C., 24 hrs", "result": "No"}, {"measurement": "S: Solubility", "setting": "[6]; SGF, 37° C., 1 hr", "result": 83, "unit": "µg/mL"}, {"measurement": "FC: Form change", "setting": "[6]; SGF, 37° C., 1 hr", "result": "No"}, {"measurement": "S: Solubility", "setting": "[6]; SGF, 37° C., 2 hrs", "result": 72, "unit": "µg/mL"}, {"measurement": "FC: Form change", "setting": "[6]; SGF, 37° C., 2 hrs", "result": "No"}, {"measurement": "S: Solubility", "setting": "[6]; SGF, 37° C., 4 hrs", "result": 75, "unit": "µg/mL"}, {"measurement": "FC: Form change", "setting": "[6]; SGF, 37° C., 4 hrs", "result": "No"}, {"measurement": "S: Solubility", "setting": "[6]; SGF, 37° C., 24 hrs", "result": 78, "unit": "µg/mL"}, {"measurement": "FC: Form change", "setting": "[6]; SGF, 37° C., 24 hrs", "result": "No"}, {"measurement": "form change of residual solids (XRPD) after solubility test", "setting": "[6]; all the media (H2O, SGF, FaSSIF, FeSSIF), after 24 hrs", "result": "No form change"}, {"measurement": "solubility compared with the other selected salts", "setting": "[6]; all the media, 37° C.", "result": "lowest solubility"}]}]}
